Measured values taken from PubChem BioAssay (NCI).
Where “and” joins values, the source holds several entries; their conditions need not be identical. Equal values may be shown once.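 The compound was tested at five concentrations on cells cultured in 96-well plates, with a 48-hour exposure period. The concentration for 50% growth inhibition is given as GI50. The concentration for full growth arrest is given as TGI.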

Columns and labels:
Test in all cases: NCI anticancer screen, dose series, 48 h
TK-10 renal = test system: TK-10 renal
MALME-3M melanoma = test system: MALME-3M melanoma
KM12 colon = test system: KM12 colon
786-0 renal = test system: 786-0 renal
LOX IMVI melanoma = test system: LOX IMVI melanoma
RPMI-8226 leukemia = test system: RPMI-8226 leukemia
HT29 colon = test system: HT29 colon
SK-OV-3 ovarian = test system: SK-OV-3 ovarian
NCI/ADR-RES ovarian = test system: NCI/ADR-RES ovarian
PC-3 prostate = test system: PC-3 prostate

Compound | TGI (TK-10 renal) | TGI (MALME-3M melanoma) | TGI (KM12 colon) | TGI (786-0 renal) | TGI (LOX IMVI melanoma) | TGI (RPMI-8226 leukemia) | TGI (HT29 colon) | TGI (SK-OV-3 ovarian) | GI50 (NCI/ADR-RES ovarian) | TGI (NCI/ADR-RES ovarian) | GI50 (TK-10 renal) | GI50 (MALME-3M melanoma) [µM] | GI50 (KM12 colon) [µM] | GI50 (786-0 renal) | GI50 (PC-3 prostate) [µM] | TGI (PC-3 prostate) | GI50 (LOX IMVI melanoma) [µM] | GI50 (HT29 colon) [µM] | GI50 (SK-OV-3 ovarian) | GI50 (RPMI-8226 leukemia) [µM]
C=C(C=O)[C@@H]1C2OC(=O)C(=C)[C@@H]2CC(O)[C@@]1(C)CC (stereo partly drawn) | 29.9 µM | 18.7 µM | 37.2 µM | 10.2 µM | 34.7 µM | 10 µM | 21.5 µM | 99.9 µM | – | – | – | – | – | – | – | – | – | – | – | –
C[C@H]1c2cccc(O)c2C(O)=C2C(=O)[C@]3(O)C(O)=C(C(N)=O)C(=O)[C@@H](N(C)C)[C@@H]3[C@@H](O)[C@@H]21 | 47.2 µM | 8.57 µM | 11.5 µM | 12.5 µM | 10 µM | – | 11.9 µM | 14.3 µM | 6.18 µM | 85.3 µM | 4.83 µM | 2.76 | 3.37 | 3.26 µM | 3 | 12.8 µM | 2.75 | 3.43 | 3.38 µM | –
CCC[CH2][Sn]([CH2]CCC)([CH2]CCC)[O]C(=O)CC | 0.305 µM | 0.349 µM | 0.27 µM | 0.295 µM | – | 0.506 µM | 0.322 µM | 0.296 µM | 0.37 µM | > 100 µM | 0.161 µM | 0.151 | 0.135 | 0.151 µM | 0.189 | 0.426 µM | – | 0.13 | 0.143 µM | 0.169
CC(O)C(N=Cc1ccccc1[O-])C(=O)[O-].CC(O)C(N=Cc1ccccc1[O-])C(=O)[O-].[Co+2] (stereo not drawn) | > 100 µM | > 100 µM | > 100 µM | > 100 µM | > 100 µM | > 100 µM | – | > 100 µM | – | – | > 100 µM | > 100 | > 100 | > 100 µM | – | – | > 100 | – | 70.9 µM | 94.4
O=S(O)CCCCSSCC(O)C(O)CSSCCCCS(=O)O (stereo not drawn) | > 100 µM | 25.8 µM and 35.9 µM | 36.4 µM and > 100 µM | > 100 µM | 38.1 µM and 72.7 µM | 46.4 µM and 46.1 µM | 24.4 µM and 27 µM | > 100 µM | – | – | – | – | – | – | – | – | – | – | – | –
CCN(CC)CCOc1ccc(/C=C(\C#N)c2ccc(OCCN(CC)CC)cc2)cc1 | > 91.3 µM | 28 µM | 23.2 µM | 25.5 µM | 25.5 µM | 50.1 µM | 8.58 µM | > 64.2 µM | – | – | – | – | – | – | – | – | – | – | – | –
O=S(=O)([O-])c1ccc2c(c1)-c1nc-2nc2[n-]c(nc3nc(nc4[n-]c(n1)c1ccc(S(=O)(=O)[O-])cc41)-c1cc(S(=O)(=O)[O-])ccc1-3)c1ccc(S(=O)(=O)[O-])cc21.[Cu+2].[Na+] | > 100 µM | > 100 µM | > 76.8 µM | > 69.6 µM | > 100 µM | > 74.3 µM | > 100 µM | > 100 µM | – | – | > 55.9 µM | > 100 | 8.36 | > 44 µM | 9.44 | > 100 µM | 3.29 | 3.32 | 97.9 µM | > 56.4
CC(C)(C)OC(=O)NCC(=O)OCc1ccccc1 | > 100 µM | > 100 µM | > 100 µM | > 100 µM | > 100 µM | – | > 100 µM | > 100 µM | – | – | – | – | – | – | – | – | – | – | – | –
CCCCOC(=O)C1C(c2ccc(Cl)cc2)NC(c2ccc(Cl)cc2)C(C(=O)OCCCC)S1(=O)=O (stereo not drawn) | > 100 µM | > 100 µM | > 100 µM | > 100 µM | > 100 µM | > 100 µM | > 100 µM | > 100 µM | – | – | – | – | – | – | – | – | – | – | – | –
COc1ccc(NC(=O)CCc2cc(-c3ccc(O)c(OC)c3)nc(NC#N)n2)cc1 | – | > 100 µM | > 100 µM | > 100 µM | > 100 µM | – | > 100 µM | > 100 µM | – | – | – | – | – | – | – | – | – | – | – | –
O=[n+]1c2c(n([O-])c3ccccc31)CCCCCCCCCC2 | > 100 µM | > 100 µM | > 100 µM | > 100 µM | > 100 µM | > 100 µM | > 100 µM | > 100 µM | – | – | – | – | – | – | – | – | – | – | – | –
COC(=O)c1cc2c3ccccc3n(C(C)=O)c2cn1 | > 100 µM | > 100 µM | > 100 µM | > 100 µM | > 100 µM | > 100 µM | > 100 µM | > 100 µM | – | – | – | – | – | – | – | – | – | – | – | –
O=C1c2ccccc2C2(Br)C(=O)c3ccccc3C12 (stereo not drawn) | > 100 µM | > 100 µM | > 100 µM | > 100 µM | 26.4 µM | > 100 µM | > 100 µM | > 100 µM | – | – | – | – | – | – | – | – | – | – | – | –
COc1ccc(OC)c(NC(=O)C(=O)NNC(=O)c2sc(NNC(C)=O)nc2C)c1 | > 100 µM | > 100 µM | > 100 µM | > 100 µM | 83.3 µM | > 100 µM | > 100 µM | > 100 µM | – | – | – | – | – | – | – | – | – | – | – | –
COC(=O)C12C3C4C1C1C2C3C41C(=O)OC(C)(C)C (stereo not drawn) | > 100 µM | > 100 µM | > 100 µM | > 100 µM | > 61.2 µM | > 72.3 µM | > 100 µM | > 100 µM | – | – | – | – | – | – | – | – | – | – | – | –
O=C(O)CNc1cc(-c2ccccc2)nc(NCC(=O)O)n1 | > 100 µM | > 100 µM | > 100 µM | > 100 µM | > 100 µM | > 100 µM | > 100 µM | > 100 µM | – | – | – | – | – | – | – | – | – | – | – | –
C/C1=C\CC[C@@]2(C)O[C@@H]2[C@H]2OC(=O)[C@@H](CN(C)C)[C@@H]2CC1 | 7.7 µM | – | 29.1 µM | 24 µM | 29.9 µM | 23.1 µM | 61.4 µM | 54 µM | 14.7 µM | 59.9 µM | 3.09 µM | – | 11.8 | 7.61 µM | 14.1 | 33.7 µM | 10.2 | 19.9 | 27.6 µM | 2.39
O=C1CN=C(C[N+](=O)[O-])c2ccccc21 | – | > 100 µM | > 100 µM | > 100 µM | – | > 100 µM | > 100 µM | > 100 µM | – | – | – | – | – | – | – | – | – | – | – | –
CS(=O)(=O)N/N=C/CN1C(=O)c2ccccc2C1=O | > 100 µM | > 100 µM | > 100 µM | > 100 µM | – | > 100 µM | > 100 µM | > 100 µM | – | – | – | – | – | – | – | – | – | – | – | –
OCCN1CN(CCO)CN(c2nc(N3CN(CCO)CN(CCO)C3)nc(N3CN(CCO)CN(CCO)C3)n2)C1 | 18.3 ng/mL | – | – | 0.968 ng/mL | – | 0.63 ng/mL | 0.63 ng/mL | 4.64 ng/mL | 0.867 ng/mL | 3.98 ng/mL | 2.05 ng/mL | – | – | 0.631 ng/mL | – | 3.51 ng/mL | – | – | 1.39 ng/mL | –
